Reference: patent US20210029993A1, “SPATIAL INHIBITORS, DETERRENTS AND REPELLENTS FOR MOSQUITOES AND MIDGES” (BEDOUKIAN RESEARCH, INC., priority 2005, published 2021)

Tests used:
Type in all cases: in vivo
mosquitoes = assay: Spatial inhibition of mosquitoes, outdoor Mosquito Magnet Liberty Plus trap catch; settings: for Percent Caught Relative To Control: control trap = 100% catch, lower = more inhibition; for percent mosquitoes caught relative to the control (relative catch): two grams of test compound on absorbent material in CO2 and r-octenol stream of trap, 2-5 days, FIG. 5
Protocol: Two grams of test compound was absorbed onto pieces of absorbent material. These pieces of absorbent material (fragrance release material from Rhopore Inc.) containing absorbed test compound were then placed in a stream of CO2 and r-octenol being released from an American Biophysics Mosquito Magnet Liberty Plus mosquito trap designed to attract mosquitoes. The test were rotated over a period of 2-5 days in such a manner that both control (trap without test compound) and test compound were tested an equal number of times in each trap employed. The number of mosquitoes caught in the traps with test compounds was compared to the number of mosquitoes caught in the trap with no test compound material present. […] Thus, a lowered percentage is indicative of the increasing ability of the test compounds to inhibit the ability of the mosquitoes sense the target. […] In Table 3, weight percent (wt %) refers to the weight of the deterring/repelling/inhibiting compound, or combination of compounds, in the composition used in the tests. In the “Percent Caught Relative to Control” column in Table 3, a lower percentage is indicative of the increasing ability of the test compounds to inhibit the ability of the mosquitoes sense the target. The weight ratio of the compounds in the combination of compounds is given in parentheses in the “Compound(s)” column of Table 3.

[1] = system: female biting midges (Culicoides impunctatus); assay: Biting midges flying test (Plexiglas module); settings: control = 1, higher = more inhibitor activity
Protocol: The following tests are employed to illustrate the efficacy of the compounds of this disclosure to effectively act as biting midge deterrents, repellents or as spatial inhibitors for biting midges. […] Biting midges are tested in a two-piece Plexiglas module designed to assess their response to feeding deterrents. […] Water (40° C.) flows through the central cavity of the platform at a rate of 215 ml/min. The top piece of the module consists of six 4.5×4.0×5.0 cm chambers, the floors of which are fitted with a sliding door positioned over a circular opening 3.5 cm in diameter. Biting midges are introduced through an aperture 1 cm in diameter on the front wall of the chambers. For each test, five female biting midges (Culicoides impunctatus) are aspirated into each of five chambers of the top module piece and the apertures are plugged with corks wrapped in plastic film. […] To each well, 77.5 μl of green dye (McCormick Food, Hunt Valley, Md.) are added so that those biting midges imbibing the sugar solution can be identified when crushed at the end of the tests. Each membrane receives 50 μl of acetone or experimental compound solution, applied to 9.6 cm^2 circular area on 0.1 mm-thick membranes made of nylon mesh in a silicone matrix. The membranes are then placed over each well in contact with the sugar solution. The circular openings on the floor of each chamber of the top piece of the module are aligned with each membrane-covered well of the bottom piece. The sliding floors of the chambers are then opened allowing biting midges access to the membranes. The number of biting midges landing on the membranes, and those flying within the apparatus, are recorded each minute for five minutes. After five minutes, any biting midges remaining on the membranes are removed with a metal wire, and the door of the floor of each chamber is closed. The top piece of the module is then placed into a freezer for 20 minutes. In the test designed to assess feeding, biting midges are removed from the frozen module, crushed on white paper towels, and examined for the presence of green dye to indicate that feeding had occurred. The proportions of biting midges feeding per trial are analyzed using a standard generalized linear model with a logit link. Landing and flying scores are repeated measures; five readings are obtained for groups of five biting midges. Thus, to maintain independence among the data, the five readings are summed, and then the sums divided by 25 (the maximum score in each category) to create proportions of biting midges landing and flying. The proportions are then transferred using the standard variance stabilizing transformation for proportions (sin^−1 √y, where y is the proportion), and analyzed using ANOVA (Analysis of Variables). In Table 5, weight percent (wt %) refers to the weight of the deterring/repelling/inhibiting compound, or combination of compounds, in the composition used in the tests. […] The weight ratio of the compounds in the combination of compounds is given in parentheses in the “Compound(s)” column of Table 5.

[2] = system: female mosquitoes (Aedes aegypti); assay: Mosquitoes flying test (Plexiglas module, mosquitoes flying within the apparatus); settings: for Flying Relative To Control: control = 1, higher = more inhibitor activity; for spatial inhibitor activity for mosquitoes (flying tests, FIGS. 2 and 4), in words: flying relative to control
Protocol: The test was conducted at 0900-2100 hours in a walk-in incubator (26° C., 63-80% RH) illuminated by fluorescent lights. Mosquitoes were tested in a two-piece Plexiglas module designed to assess their response to feeding deterrents. The bottom piece of the module was 40×7×4-cm hollow platform supporting six circular wells (diameter=3.8 cm, depth=6 mm). Water (40° C.) flowed through the central cavity of the platform at a rate of 215 ml/min. The top piece of the module consisted of six 4.5×4.0×5.0 cm chambers, the floors of which were fitted with a sliding door positioned over a circular opening 3.5 cm in diameter. Mosquitoes were introduced through an aperture 1 cm in diameter on the front wall of the chambers. For each test, five female mosquitoes (Aedes aegypti) were aspirated into each of five chambers of the top module piece and the apertures were plugged with corks wrapped in plastic film. The wells on the bottom piece of the module were filled with 7 ml of 10% sucrose solution containing ATP (2.9 mg/ml). To each well, 75 μl of green dye (McCormick Food, Hunt Valley, Md.) were added so that those mosquitoes imbibing the sugar solution could be identified when crushed at the end of the tests. Each membrane received 50 ul of acetone or experimental compound solution, applied to 9.6 cm^2 circular area on 0.1 mm-thick membranes made of nylon mesh in a silicone matrix. The membranes were then placed over each well in contact with the sugar solution.
The circular openings on the floor of each chamber of the top piece of the module were aligned with each membrane-covered well of the bottom piece. The sliding floors of the chambers were then opened allowing mosquitoes access to the membranes. The number of mosquitoes landing on the membranes, and those flying within the apparatus, were recorded each minute for five minutes. After five minutes, any mosquitoes remaining on the membranes were removed with a metal wire, and the door of the floor of each chamber was closed. The top piece of the module was then placed into a freezer for 20 minutes. In the test designed to assess feeding, mosquitoes were removed from the frozen module, crushed on white paper towels, and examined for the presence of green dye to indicate that feeding had occurred. The proportions of mosquitoes feeding per trial were analyzed using a standard generalized linear model with a logit link. Landing and flying scores are repeated measures; five reading were obtained for groups of five mosquitoes. Thus, to maintain independence among the data, the five readings were summed, and then the sums divided by 25 (the maximum score in each category) to create proportions of mosquitoes landing and flying. The proportions were then transferred using the standard variance stabilizing transformation for proportions (sin^−1 √y, where y is the proportion), and analyzed using ANOVA (Analysis of Variables)
In Table 2, weight percent (wt %) refers to the weight of the deterring/repelling/inhibiting compound, or combination of compounds, in the composition used in the tests. […] The weight ratio of the compounds in the combination of compounds is given in parentheses in the “Compound(s)” column of Table 2.

[3] = 85 wt % compound(s) in composition
[4] = 80 wt % compound(s) in composition
[5] = 82.5 wt % compound(s) in composition
[6] = 92.5 wt % compound(s) in composition
[7] = 77.5 wt % compound(s) in composition
[8] = 90 wt % compound(s) in composition
[9] = 87.5 wt % compound(s) in composition
[10] = 95 wt % compound(s) in composition

C=C(C)[C@@H]1CC=C(C)[C@H](O)C1 (relative stereo) [cis-Carveol]
Percent Caught Relative To Control (mosquitoes; [3]): 23%
Flying Relative To Control [1, 3]: 1.25
Flying Relative To Control [2, 3]: 1.35

Cc1ccc(C(C)(C)O)cc1
Percent Caught Relative To Control (mosquitoes; [4]): 26%
percent mosquitoes caught relative to the control (relative catch) (mosquitoes): about 34%
Flying Relative To Control [1, 4]: 1.2
Flying Relative To Control [2, 4]: 1.0
spatial inhibitor activity for mosquitoes (flying tests, FIGS. 2 and 4), in words [2]: particularly effective as spatial inhibitors for mosquitoes

CC(C)=CCCC(C)=CC=O [Citral]
Percent Caught Relative To Control (mosquitoes; [5]): 10%
Flying Relative To Control [1, 5]: 2.15
Flying Relative To Control [2, 5]: 2.0
spatial inhibitor activity for mosquitoes (flying tests, FIGS. 2 and 4), in words [2]: particularly effective as spatial inhibitors for mosquitoes

C=C(C)C1CCC2(C)OC2C1 (single isomer, unassigned; (-)) [(−) Limonene oxide]
Percent Caught Relative To Control (mosquitoes; [6]): 17%
Flying Relative To Control [1, 6]: 1.15
Flying Relative To Control [2, 6]: 1.1

C=C(C)[C@@H]1CC=C(C)[C@@H](O)C1 (relative stereo) [trans-Carveol]
Percent Caught Relative To Control (mosquitoes; [7]): 22%
Flying Relative To Control [1, 7]: 1.5
Flying Relative To Control [2, 7]: 1.55

C=C[C@@](C)(O)CCC=C(C)C [d-Linalool, reference compound]
Percent Caught Relative To Control (mosquitoes; [4]): 6%
Flying Relative To Control [1, 4]: 1.35
Flying Relative To Control [2, 4]: 1.25

CC1=CCC(O)(C(C)C)CC1 (stereo not shown) [Terpinen-4-ol]
Percent Caught Relative To Control (mosquitoes; [8]): 20%
percent mosquitoes caught relative to the control (relative catch) (mosquitoes): about 38%
Flying Relative To Control [1, 8]: 1.6
Flying Relative To Control [2, 8]: 1.7
spatial inhibitor activity for mosquitoes (flying tests, FIGS. 2 and 4), in words [2]: particularly effective as spatial inhibitors for mosquitoes

CC(C)=CCCC(C)CC=O (stereo not shown) [Citronellal]
Percent Caught Relative To Control (mosquitoes; [6]): 11%
Flying Relative To Control [1, 6]: 1.95
Flying Relative To Control [2, 6]: 1.9
spatial inhibitor activity for mosquitoes (flying tests, FIGS. 2 and 4), in words [2]: particularly effective as spatial inhibitors for mosquitoes

CC(=O)OCCC(C)CCC=C(C)C (stereo not shown) [Citronellyl acetate]
Percent Caught Relative To Control (mosquitoes; [4]): 26%
Flying Relative To Control [1, 4]: 1.25
Flying Relative To Control [2, 4]: 1.5
spatial inhibitor activity for mosquitoes (flying tests, FIGS. 2 and 4), in words [2]: particularly effective as spatial inhibitors for mosquitoes

(+) Limonene oxide
Percent Caught Relative To Control (mosquitoes; [9]): 18%
Flying Relative To Control [1, 9]: 0.95
Flying Relative To Control [2, 9]: 0.90

CC(=O)OC/C=C(\C)CCC=C(C)C [Geranyl acetate]
Percent Caught Relative To Control (mosquitoes; [3]): 30%
Flying Relative To Control [1, 3]: 1.5
Flying Relative To Control [2, 3]: 1.75
spatial inhibitor activity for mosquitoes (flying tests, FIGS. 2 and 4), in words [2]: particularly effective as spatial inhibitors for mosquitoes

C=C(C)[C@H]1CC=C(C)C(=O)C1 [d-Carvone]
Percent Caught Relative To Control (mosquitoes; [7]): 12%
Flying Relative To Control [1, 7]: 1.55
Flying Relative To Control [2, 7]: 1.95
spatial inhibitor activity for mosquitoes (flying tests, FIGS. 2 and 4), in words [2]: particularly effective as spatial inhibitors for mosquitoes

CC(C)[C@@H]1CC[C@@H](C)C(=O)C1 [Tetrahydrocarvone]
Percent Caught Relative To Control (mosquitoes; [10]): 25%
percent mosquitoes caught relative to the control (relative catch) (mosquitoes): about 52%
Flying Relative To Control [1, 10]: 1.7
Flying Relative To Control [2, 10]: 1.65

CC(=O)OC/C=C(/C)CCC=C(C)C [Neryl acetate]
Percent Caught Relative To Control (mosquitoes; [7]): 22%
Flying Relative To Control [1, 7]: 2.5
Flying Relative To Control [2, 7]: 2.0
spatial inhibitor activity for mosquitoes (flying tests, FIGS. 2 and 4), in words [2]: particularly effective as spatial inhibitors for mosquitoes

l-Carvone
Percent Caught Relative To Control (mosquitoes; [5]): 10%
Flying Relative To Control [1, 5]: 1.65
Flying Relative To Control [2, 5]: 1.75
spatial inhibitor activity for mosquitoes (flying tests, FIGS. 2 and 4), in words [2]: particularly effective as spatial inhibitors for mosquitoes

CC1=CCC(C(C)(C)O)CC1 (stereo not drawn) [α-terpineol]
Percent Caught Relative To Control (mosquitoes; [8]): 18%
Flying Relative To Control [1, 8]: 1.5
Flying Relative To Control [2, 8]: 1.15
spatial inhibitor activity for mosquitoes (flying tests, FIGS. 2 and 4), in words [2]: particularly effective as spatial inhibitors for mosquitoes
